Assays:
dopamine D3 receptor = dopamine D3 receptor (Homo sapiens, UniProt P35462); assay: Dopamine D3 receptor competition binding ([3H]spiperone)
Protocol: (§4) Competition binding experiments at dopamine D2s and D3 receptor were performed to determine the affinity of the compounds. […] Membrane preparations of transfected CHO-K1 cells stably expressing the human D2s or D3 receptor were performed according to Bautista-Aguilera et al. [26]. The competition binding experiments were conducted as previously reported [26, 27]. Briefly, membrane fractions (D2sR: 25 µg/200 µL; D3R: 20 µg/200 µL) were incubated with [^3H]spiperone (0.2 nM) and test compound for 120 min at room temperature. […] Non-specific binding was determined in the presence of 10 µM haloperidol. Haloperidol was also used as reference compound. Separation of the bound ligand from the free ligand was conducted by filtration through GF/B filters using deionized water.

dopamine D1 receptor = target: T1, dopamine D1 receptor (Homo sapiens, UniProt P21728); assay: Dopamine D1 receptor competition binding ([3H]-SCH23390); details: HEK-293 membranes, [3H]-SCH23390 0.3 nM, mean (CI 95%), read-out: Affinity Ki D1
T1 construct: expressed in transfected cells
Protocol: (§1) The final compounds were tested for their affinity at serotonin 5-HT1A, 5-HT2A, and 5-HT7 receptors and at dopamine D1, D2, D3, and D5 receptors. As a first step, competition radioligand binding assays were carried out for all the compounds at the single concentration of 10 µM, on membrane preparations from stable cell lines heterologously expressing the human cloned 5-HT1A, 5-HT2A, or 5-HT7 receptors. […] For the affinity determination at dopamine receptor subtypes, membrane fractions of human dopamine D2s, D3, D1, and D5 receptor-expressing cells were used. They were co-incubated with [^3H]spiperone (for D2s and D3 receptor) or [^3H]SCH23390 (for D1 and D5 receptor) and appropriate concentrations of test compound for 120 min. Bound radioligand was separated from the free ligand using filtration. Radioactivity was measured by liquid scintillation counting.
(§2) The affinity for dopamine D1 and D5 receptors was evaluated in membrane fractions of HEK-293 cells stably expressing the human dopamine D1 or D5 receptor. HEK-293-D1 cells were cultured in DMEM/F12 (15 mM HEPES, 1.2 g/L NaHCO3) with 10% (v/v) FBS and 1% (v/v) L-glutamine. HEK-293-D5 cells were cultured in DMEM/F12 (with L-glutamine, 1.2 g/L NaHCO3) with 20% (v/v) FBS. Preparation of membrane fractions and radioligand competition assays were performed as previously described. Briefly, membrane fractions were co-incubated with [^3H]-SCH23390 (0.3 nM) and different concentrations of test compound for 120 min at room temperature. Fluphenazine (100 µM) was used to determine non-specific binding and as reference compound.
(§3) Data of at least three independent experiments in triplicate were analyzed using GraphPad Prism 8.1 (San Diego, CA, USA). Binding curves were fitted to a non-linear regression model (one-site competition). Ki values were calculated from IC50 values using the Cheng–Prusoff equation. The statistical calculations were performed on –log(Ki).

[1] = target: T2, serotonin 5-HT7 receptor (5-HT7A) (Homo sapiens, UniProt P34969); assay: 5-HT7 receptor radioligand competition binding ([3H]-SB269970); details: human cloned 5-HT7A receptor, HEK293 membranes, 2 nM [3H]-SB269970; ± S.E.M., n = 3 in duplicate; read-out: Affinity Ki 5-HT7
T2 construct: expressed in transfected cells
Protocol: as §1, with “As” for “The final compounds were tested for their affinity at serotonin 5-HT1A, 5-HT2A, and 5-HT7 receptors and at dopamine D1, D2, D3, and D5 receptors. As”
The affinity of the compounds for serotonin 5-HT7 receptor was evaluated in membrane preparations from HEK293 cells stably expressing the human cloned 5-HT7A receptor, following previously described procedures with minor modifications. Competition binding experiments were performed using 2 nM [^3H]-SB269970 (34.5 Ci/mmol, 0.25 mCi/mL, Perkin Elmer NET1198U250UC) as radioligand. […] Methiothepine was included in the assays as reference compound. Assays were carried out in duplicate in 96-well assay plates, in assay buffer (50 mM Tris-HCl, 4 mM MgCl2, 1 mM ascorbic acid, 0.1 mM pargyline, pH = 7.4). Assay mixtures were incubated at 37 °C for 60 min, followed by filtration through GF/C glass filter plates, and washing with ice-cold assay buffer. Affinity (equilibrium dissociation constant, Ki) of the compounds was calculated from competition binding curves as indicated above.

[2] = Stability assay in rat liver microsomes; format: in vitro ADME; details: pH 7.4; rat liver microsomes, 30 min incubation, NADPH-regenerating system, 10 μM; read-out: Metabolic Stability (percentage of recovery of the parent compound)
Protocol: To evaluate the susceptibility to first-pass oxidative metabolism, the leading cause of metabolic degradation in vivo [17] the target compounds were incubated with rat liver microsomes. The turnover of the parent compound was assessed as the percentage of the parent compound recovered after 30 min of incubation with microsomes in the presence of an NADPH-regenerating system.
Test compounds were pre-incubated at 37 °C with rat liver microsomes (Tebu-Bio, Milan, Italy) (1.0 mg/mL microsomal protein) at 10 μM final concentration in 100 mM potassium phosphate buffer (pH 7.4) for 10 min. Metabolic reactions were initiated by the addition of the NADPH regenerating system (containing 10 mM NADP, 50 mM glucose-6-phosphate, and 10 unit/mL glucose-6-phosphate dehydrogenase, final glucose-6-phosphate dehydrogenase concentration, 1 unit/mL). After 30 min incubation, the reaction mixture was quenched by adding an equal volume of cold acetonitrile containing the internal standard. A test compound incubated with microsomes without NADPH regenerating system was included. Quenched samples were centrifuged at 4500 rpm for 15 min and the supernatants were injected for quantification analysis. Samples (100 μL) were analyzed by using an Agilent 1260 Infinity Binary LC System equipped with a diode array detector (Open Lab software was used to analyze the chromatographic data) and a Phenomenex Gemini C-18 column (250 mm × 4.6 mm, 5 μm particle size). The samples were eluted using CH3CN/20 mM ammonium formate pH 5.5 (7:3, v/v) as eluent (volumetric flow rate =1 mL/min). Concentrations were quantified by measuring the area under the peak.
The percentage of the parent compound remaining after a 30-min incubation was calculated according to the equation:% of parent compound remaining after 30 min = Cparent/Ccontrol × 100(1) where Cparent is ligand concentration after incubation with microsome fraction and NADPH regenerating system and Ccontrol is ligand concentration after incubation with microsome fraction only.

[3] = target: T3, serotonin 5-HT2A receptor (Homo sapiens, UniProt P28223); assay: 5-HT2A receptor radioligand competition binding ([3H]-ketanserin); details: human cloned receptor, CHO-K1 membranes, 1 nM [3H]-ketanserin; ± S.E.M., n = 3 in duplicate; read-out: Affinity Ki 5-HT2A
T3 construct: expressed in transfected cells

dopamine D5 receptor = target: T4, dopamine D5 receptor (Homo sapiens, UniProt P21918); assay: Dopamine D5 receptor competition binding ([3H]-SCH23390); details: HEK-293 membranes, [3H]-SCH23390 0.3 nM, mean (CI 95%), read-out: Affinity Ki D5
T4 construct: expressed in transfected cells
Protocol: as §1, §2, §3

[4] = target: T5, serotonin 5-HT1A receptor (Homo sapiens, UniProt P08908); assay: 5-HT1A receptor radioligand competition binding ([3H]-8-Hydroxy-DPAT); details: human cloned receptor, HEK293 membranes, 1 nM [3H]-8-Hydroxy-DPAT; ± S.E.M., n = 3 in duplicate; read-out: Affinity Ki 5-HT1A
T5 construct: expressed in transfected cells
T5 sequence (P08908 1-422): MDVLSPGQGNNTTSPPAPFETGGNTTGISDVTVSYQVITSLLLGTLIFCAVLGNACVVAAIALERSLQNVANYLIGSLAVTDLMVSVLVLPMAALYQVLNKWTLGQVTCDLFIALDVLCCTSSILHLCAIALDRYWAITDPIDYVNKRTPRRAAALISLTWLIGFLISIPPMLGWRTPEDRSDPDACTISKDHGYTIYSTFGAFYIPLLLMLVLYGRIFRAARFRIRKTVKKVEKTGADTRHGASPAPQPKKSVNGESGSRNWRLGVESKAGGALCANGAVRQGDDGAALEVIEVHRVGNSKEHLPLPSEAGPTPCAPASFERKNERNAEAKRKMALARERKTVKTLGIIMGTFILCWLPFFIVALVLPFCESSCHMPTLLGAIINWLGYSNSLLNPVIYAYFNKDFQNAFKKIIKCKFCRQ
Protocol: as §1, with “As” for “The final compounds were tested for their affinity at serotonin 5-HT1A, 5-HT2A, and 5-HT7 receptors and at dopamine D1, D2, D3, and D5 receptors. As”
The affinity of the compounds for serotonin 5-HT1A receptor was evaluated in membrane preparations from HEK293 cells stably expressing the human cloned receptor, following previously described procedures with minor modifications. Competition binding experiments were performed using 1 nM [^3H]-8-Hydroxy-DPAT (1 mCi/mL, PerkinElmer NET929250UC) as radioligand. Nonspecific binding was assessed in the presence of 10 µM serotonin. […] Assays were carried out in duplicate in 96-well assay plates, in assay buffer (50 mM Tris-HCl, 5 mM MgSO4, pH = 7.4). Assay mixtures were incubated at 37 °C for 120 min, followed by filtration through GF/C glass filter plates, and washed with ice-cold wash buffer (50 mM Tris-HCl, pH = 7.4).

dopamine D2s receptor = dopamine D2s receptor (Homo sapiens, UniProt P14416); assay: Dopamine D2s receptor competition binding ([3H]spiperone)
dopamine D2s receptor, sequence (P14416 1-414 isoform P14416-2): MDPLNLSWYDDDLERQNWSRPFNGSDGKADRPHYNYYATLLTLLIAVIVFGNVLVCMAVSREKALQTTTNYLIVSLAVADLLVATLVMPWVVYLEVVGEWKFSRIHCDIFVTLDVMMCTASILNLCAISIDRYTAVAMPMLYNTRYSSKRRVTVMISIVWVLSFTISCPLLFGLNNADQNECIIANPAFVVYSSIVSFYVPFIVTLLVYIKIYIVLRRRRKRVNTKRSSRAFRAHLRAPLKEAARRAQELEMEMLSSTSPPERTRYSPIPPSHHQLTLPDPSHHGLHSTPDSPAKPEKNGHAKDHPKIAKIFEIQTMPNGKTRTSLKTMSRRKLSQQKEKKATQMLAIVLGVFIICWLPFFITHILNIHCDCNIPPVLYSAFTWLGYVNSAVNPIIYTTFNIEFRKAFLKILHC
Protocol: as §4

T1 sequence (P21728 whole entry): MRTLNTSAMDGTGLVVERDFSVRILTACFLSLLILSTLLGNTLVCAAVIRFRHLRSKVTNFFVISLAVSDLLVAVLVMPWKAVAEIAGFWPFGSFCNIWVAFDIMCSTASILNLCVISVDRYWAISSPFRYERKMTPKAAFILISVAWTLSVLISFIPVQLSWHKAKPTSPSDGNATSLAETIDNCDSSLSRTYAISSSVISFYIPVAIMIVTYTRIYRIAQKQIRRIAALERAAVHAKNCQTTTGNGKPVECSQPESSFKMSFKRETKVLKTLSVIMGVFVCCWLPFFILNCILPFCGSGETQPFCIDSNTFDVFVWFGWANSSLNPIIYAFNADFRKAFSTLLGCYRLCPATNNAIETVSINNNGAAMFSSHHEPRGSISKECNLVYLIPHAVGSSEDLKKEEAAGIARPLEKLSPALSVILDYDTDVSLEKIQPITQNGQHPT
T4 sequence (P21918 whole entry): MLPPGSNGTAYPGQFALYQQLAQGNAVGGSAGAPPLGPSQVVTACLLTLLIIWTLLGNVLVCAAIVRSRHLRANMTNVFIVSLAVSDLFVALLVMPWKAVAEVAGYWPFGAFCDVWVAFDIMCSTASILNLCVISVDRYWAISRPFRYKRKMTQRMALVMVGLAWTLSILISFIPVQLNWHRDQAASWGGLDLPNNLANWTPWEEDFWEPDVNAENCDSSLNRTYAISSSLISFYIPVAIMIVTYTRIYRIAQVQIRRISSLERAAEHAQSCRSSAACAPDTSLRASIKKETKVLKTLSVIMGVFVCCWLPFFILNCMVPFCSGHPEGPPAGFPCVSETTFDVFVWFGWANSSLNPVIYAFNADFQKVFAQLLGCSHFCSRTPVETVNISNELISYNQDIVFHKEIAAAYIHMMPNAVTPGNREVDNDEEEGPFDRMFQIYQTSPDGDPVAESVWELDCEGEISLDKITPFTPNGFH
dopamine D3 receptor, sequence (P35462 whole entry): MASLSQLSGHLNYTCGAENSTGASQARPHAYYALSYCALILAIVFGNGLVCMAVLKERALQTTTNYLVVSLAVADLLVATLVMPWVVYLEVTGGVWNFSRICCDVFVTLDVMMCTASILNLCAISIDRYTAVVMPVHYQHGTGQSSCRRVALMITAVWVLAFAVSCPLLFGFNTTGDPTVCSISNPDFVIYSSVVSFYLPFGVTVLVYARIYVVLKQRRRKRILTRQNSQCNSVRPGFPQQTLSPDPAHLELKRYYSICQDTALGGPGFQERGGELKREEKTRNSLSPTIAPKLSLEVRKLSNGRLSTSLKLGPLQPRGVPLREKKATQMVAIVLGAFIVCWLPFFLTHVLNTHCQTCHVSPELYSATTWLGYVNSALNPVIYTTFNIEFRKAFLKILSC
T2 sequence (P34969 1-445 isoform P34969-2): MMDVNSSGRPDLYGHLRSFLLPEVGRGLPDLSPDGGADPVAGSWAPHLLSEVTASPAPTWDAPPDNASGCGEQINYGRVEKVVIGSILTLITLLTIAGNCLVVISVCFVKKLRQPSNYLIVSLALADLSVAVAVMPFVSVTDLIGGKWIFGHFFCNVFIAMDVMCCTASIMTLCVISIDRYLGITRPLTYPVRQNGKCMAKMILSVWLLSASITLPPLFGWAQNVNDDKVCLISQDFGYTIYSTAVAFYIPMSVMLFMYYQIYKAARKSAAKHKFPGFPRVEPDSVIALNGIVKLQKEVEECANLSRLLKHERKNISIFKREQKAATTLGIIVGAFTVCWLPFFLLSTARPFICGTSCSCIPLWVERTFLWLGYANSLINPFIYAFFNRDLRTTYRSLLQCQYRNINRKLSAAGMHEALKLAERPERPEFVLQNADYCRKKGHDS
T3 sequence (P28223 whole entry): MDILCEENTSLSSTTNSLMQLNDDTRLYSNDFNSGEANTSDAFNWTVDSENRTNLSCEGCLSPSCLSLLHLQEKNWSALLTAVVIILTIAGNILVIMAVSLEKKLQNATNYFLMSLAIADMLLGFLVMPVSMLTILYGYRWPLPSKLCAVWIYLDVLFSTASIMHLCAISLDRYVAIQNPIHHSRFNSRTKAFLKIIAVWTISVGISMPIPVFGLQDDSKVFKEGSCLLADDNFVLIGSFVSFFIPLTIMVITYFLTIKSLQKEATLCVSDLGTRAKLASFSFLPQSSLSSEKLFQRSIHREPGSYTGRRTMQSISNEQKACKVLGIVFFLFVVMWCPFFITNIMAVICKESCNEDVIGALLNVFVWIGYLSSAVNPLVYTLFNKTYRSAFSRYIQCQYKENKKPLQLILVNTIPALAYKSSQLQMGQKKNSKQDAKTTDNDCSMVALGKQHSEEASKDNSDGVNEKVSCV

## COc1ccc(-c2cc(F)ccc2N2CCN(CCCn3ncc(=O)n(C)c3=O)CC2)cc1 [Compound 9a, 2-(3-(4-(5-Fluoro-4’-methoxy-[1,1’-biphenyl]-2-yl)piperazin-1-yl)propyl)-4-methyl-1,2,4-triazine-3,5(2H,4H)-dione]
Dopamine D3 receptor
  Ki: > 10000 nM
Dopamine D1 receptor
  Ki: 193 nM
[1]
  Ki: 60.8 ± 7.1 nM
[2]
  remaining at 30 min, 10 μM: < 3%
[3]
  Ki: 49.1 ± 12 nM
Dopamine D5 receptor
  Ki: 413 nM
[4]
  Ki: 653 ± 95 nM
Dopamine D2s receptor
  Ki: > 10000 nM
